Patent publication US20080234332A1, “RAF KINASE INHIBITORS CONTAINING A ZINC BINDING MOIETY” (priority 2007, published 2008)

Experiments:
Type in all cases: biochemical
HDAC = HDAC fluorimetric assay kit (HeLa nuclear extract); details: read-out: HDAC IC50 grade
Protocol: HDAC inhibitors were screened using an HDAC fluorimetric assay kit (AK-500, Biomol, Plymouth Meeting, Pa.). […] Each assay was setup as follows: Defrosted all kit components and kept on ice until use. Diluted HeLa nuclear extract 1:29 in assay buffer (50 mM Tris/Cl, pH 8.0, 137 mM NaCl, 2.7 mM KCl, 1 mM MgCl2). Prepared dilutions of Trichostatin A (TSA, positive control) and tested compounds in assay buffer (5× of final concentration). Diluted Fluor de LysTM Substrate in assay buffer to 100 uM (50 fold=2× final). Diluted Fluor de LysTM developer concentrate 20-fold (e.g. 50 μl plus 950 μl assay buffer) in cold assay buffer. Second, diluted the 0.2 mM Trichostatin A 100-fold in the 1× Developer (e.g. 10 μl in 1 ml; final Trichostatin A concentration in the 1× Developer=2 μM; final concentration after addition to HDAC/Substrate reaction=1 μM). Added assay buffer, diluted trichostatin A or test inhibitor to appropriate wells of the microtiter plate. Added diluted HeLa extract or other HDAC sample to all wells except for negative controls. Allowed diluted Fluor de LysTM Substrate and the samples in the microtiter plate to equilibrate to assay temperature (e.g. 25 or 37° C. Initiated HDAC reactions by adding diluted substrate (25 μl) to each well and mixing thoroughly. Allowed HDAC reactions to proceed for 1 hour and then stopped them by addition of Fluor de LysTM Developer (50 μl). Incubated plate at room temperature (25° C.) for 10-15 min. Read samples in a microtiter-plate reading fluorimeter capable of excitation at a wavelength in the range 350-380 nm and detection of emitted light in the range 440-460 nm.
(§1) The following TABLE B lists compounds representative of the invention and their activity in HDAC, VEGFR2 and RAF assays.

VEGFR2 = molecular target: T1, VEGFR2 (Homo sapiens, UniProt P35968); test: HTScan VEGFR2 Kinase Assay (DELFIA); details: 200 μM ATP; read-out: VEGFR2 IC50 grade
T1 construct: GST (N); His6 (N); Thrombin cleavage site (N); purchased Cell Signaling Technologies; host or cells: baculovirus expression system
T1 sequence (P35968 805-1356): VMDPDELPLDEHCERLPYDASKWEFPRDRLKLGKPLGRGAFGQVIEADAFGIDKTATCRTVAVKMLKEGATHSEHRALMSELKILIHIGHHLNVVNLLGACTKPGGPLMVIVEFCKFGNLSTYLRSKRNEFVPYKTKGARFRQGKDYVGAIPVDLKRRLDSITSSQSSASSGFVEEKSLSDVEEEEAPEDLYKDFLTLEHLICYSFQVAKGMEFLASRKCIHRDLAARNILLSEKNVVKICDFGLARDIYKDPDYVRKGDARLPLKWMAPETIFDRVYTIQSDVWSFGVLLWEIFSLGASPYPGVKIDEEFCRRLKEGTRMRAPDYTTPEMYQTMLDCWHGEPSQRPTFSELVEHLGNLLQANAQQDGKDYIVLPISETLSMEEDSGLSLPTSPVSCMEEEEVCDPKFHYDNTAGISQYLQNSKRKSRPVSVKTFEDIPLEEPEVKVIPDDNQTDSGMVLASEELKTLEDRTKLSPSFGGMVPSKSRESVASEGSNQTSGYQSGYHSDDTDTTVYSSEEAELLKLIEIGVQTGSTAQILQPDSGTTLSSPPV
Protocol: The ability of compounds to inhibit VEGFR2 kinase activity was assayed using HTScan™ VEGFR2 Kinase Assay Kits (Cell Signaling Technologies, Danvers, Mass.). […] The protein was purified by one-step affinity chromatography using glutathione-agarose.
Immediately transfer enzyme from −80° C. to ice. Allowed enzyme to thaw on ice. […] Returned immediately to ice. […] Incubated reaction plate at room temperature for 30 minutes. […] Added 100 μl/well primary antibody. Incubated at room temperature for 60 minutes. […] Added 100 μl/well diluted antibody. Incubated at room temperature for 30 minutes. […] Incubated at room temperature for 5 minutes.
as §1

cKit = cKit (Homo sapiens, UniProt P10721); test: cKit kinase inhibition (Table B); details: read-out: cKit IC50 grade
Sequence of cKit (P10721 26-976): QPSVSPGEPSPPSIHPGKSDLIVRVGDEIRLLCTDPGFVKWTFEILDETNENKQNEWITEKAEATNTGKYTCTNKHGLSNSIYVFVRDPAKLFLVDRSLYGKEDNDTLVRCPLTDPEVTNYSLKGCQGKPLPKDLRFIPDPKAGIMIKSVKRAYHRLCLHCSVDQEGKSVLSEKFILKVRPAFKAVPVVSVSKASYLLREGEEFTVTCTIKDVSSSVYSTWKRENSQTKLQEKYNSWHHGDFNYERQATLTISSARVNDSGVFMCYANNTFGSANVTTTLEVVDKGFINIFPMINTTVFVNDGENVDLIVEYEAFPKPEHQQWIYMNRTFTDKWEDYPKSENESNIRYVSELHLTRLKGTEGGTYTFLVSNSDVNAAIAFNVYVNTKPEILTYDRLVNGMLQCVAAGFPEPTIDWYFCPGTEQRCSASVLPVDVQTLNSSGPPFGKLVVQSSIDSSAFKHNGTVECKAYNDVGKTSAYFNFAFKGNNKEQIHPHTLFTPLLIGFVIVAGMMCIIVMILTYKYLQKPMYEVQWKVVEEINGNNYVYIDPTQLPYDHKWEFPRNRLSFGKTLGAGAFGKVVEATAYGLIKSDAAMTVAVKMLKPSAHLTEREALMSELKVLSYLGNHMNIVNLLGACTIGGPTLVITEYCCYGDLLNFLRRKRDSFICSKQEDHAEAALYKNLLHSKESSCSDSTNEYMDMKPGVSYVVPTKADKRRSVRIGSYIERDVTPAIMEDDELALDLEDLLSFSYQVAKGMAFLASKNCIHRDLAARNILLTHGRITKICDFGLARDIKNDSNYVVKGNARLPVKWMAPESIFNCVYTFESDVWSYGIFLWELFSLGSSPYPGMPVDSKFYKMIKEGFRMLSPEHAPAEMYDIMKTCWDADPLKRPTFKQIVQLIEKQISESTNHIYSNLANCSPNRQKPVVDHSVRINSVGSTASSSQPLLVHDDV

PDGFRβ = PDGFRβ (Homo sapiens, UniProt P09619); test: PDGFRβ kinase inhibition (Table B); details: read-out: PDGFRβ IC50 grade
Sequence of PDGFRβ (P09619 33-1106, species assumed): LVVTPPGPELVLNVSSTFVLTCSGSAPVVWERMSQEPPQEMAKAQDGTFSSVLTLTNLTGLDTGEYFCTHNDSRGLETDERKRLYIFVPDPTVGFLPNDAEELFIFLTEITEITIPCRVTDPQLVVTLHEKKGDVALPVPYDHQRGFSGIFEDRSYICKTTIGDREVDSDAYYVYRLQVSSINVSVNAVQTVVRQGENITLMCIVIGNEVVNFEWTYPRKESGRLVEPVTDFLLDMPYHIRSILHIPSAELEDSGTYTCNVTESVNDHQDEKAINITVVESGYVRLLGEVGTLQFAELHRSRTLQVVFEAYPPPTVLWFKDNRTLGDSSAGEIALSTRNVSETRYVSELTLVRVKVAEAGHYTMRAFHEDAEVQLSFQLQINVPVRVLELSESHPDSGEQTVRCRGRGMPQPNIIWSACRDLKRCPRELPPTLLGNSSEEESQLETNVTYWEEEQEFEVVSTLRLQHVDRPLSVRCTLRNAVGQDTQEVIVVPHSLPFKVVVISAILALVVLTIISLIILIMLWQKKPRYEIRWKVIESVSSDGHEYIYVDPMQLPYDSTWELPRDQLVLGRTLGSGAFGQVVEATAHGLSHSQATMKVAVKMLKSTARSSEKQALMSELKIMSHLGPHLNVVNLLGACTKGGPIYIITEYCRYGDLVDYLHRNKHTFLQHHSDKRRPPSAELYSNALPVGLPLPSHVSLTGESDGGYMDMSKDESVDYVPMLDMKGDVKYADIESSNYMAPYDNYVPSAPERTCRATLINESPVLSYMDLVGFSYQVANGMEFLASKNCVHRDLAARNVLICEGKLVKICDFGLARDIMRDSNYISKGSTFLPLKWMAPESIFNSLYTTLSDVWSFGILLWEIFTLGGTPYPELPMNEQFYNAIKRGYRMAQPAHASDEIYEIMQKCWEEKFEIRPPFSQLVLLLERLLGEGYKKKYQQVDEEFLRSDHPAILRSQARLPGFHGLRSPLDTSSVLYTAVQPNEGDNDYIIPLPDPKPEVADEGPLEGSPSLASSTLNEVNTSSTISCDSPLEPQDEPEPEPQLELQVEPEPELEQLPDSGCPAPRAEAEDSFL

C-Raf = C-Raf (Homo sapiens, UniProt P04049); test: Raf kinase assay (C-Raf kit, MEK-1 substrate, dot blot); details: 250 μM ATP; read-out: C-Raf IC50 grade
Sequence of C-Raf (P04049 whole entry Y340D/Y341D, form open): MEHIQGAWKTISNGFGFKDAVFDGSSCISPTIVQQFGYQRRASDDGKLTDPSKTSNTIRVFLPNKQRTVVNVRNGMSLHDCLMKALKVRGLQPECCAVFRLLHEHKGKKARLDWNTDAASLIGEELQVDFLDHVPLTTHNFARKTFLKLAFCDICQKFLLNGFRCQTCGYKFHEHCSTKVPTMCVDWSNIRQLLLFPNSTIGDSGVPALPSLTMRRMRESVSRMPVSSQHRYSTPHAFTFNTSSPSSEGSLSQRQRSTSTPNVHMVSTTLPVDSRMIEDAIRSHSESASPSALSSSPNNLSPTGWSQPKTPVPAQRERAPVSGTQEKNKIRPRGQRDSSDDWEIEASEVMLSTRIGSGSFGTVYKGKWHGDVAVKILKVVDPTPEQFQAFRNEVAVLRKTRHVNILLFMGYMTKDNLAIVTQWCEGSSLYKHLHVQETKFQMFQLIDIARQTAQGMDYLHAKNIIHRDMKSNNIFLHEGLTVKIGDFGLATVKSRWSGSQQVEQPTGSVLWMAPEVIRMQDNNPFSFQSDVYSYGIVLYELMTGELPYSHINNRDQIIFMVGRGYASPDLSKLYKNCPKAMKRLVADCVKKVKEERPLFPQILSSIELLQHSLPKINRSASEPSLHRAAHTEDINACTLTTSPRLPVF
Protocol: (§2) The Raf kinase assay was performed by following the protocol of Raf kinase assay kit (B-Raf, Upstate, catalog# 17-359; C-Raf, Upstate, catalog# 17-360) with modifications. Briefly, assay buffer, ATP, substrate and Raf kinase were mixed in a 96 well assay plate. The final kinase assay mixture contained 20 mM MOPS, pH7.2, 25 mM β-glycerol phosphate, 5 mM EGTA, 1 mM sodium orthovanadate, 1 mM DTT, 250 μM ATP and 37.5 mM magnesium chloride, 0.1 μg/well of Raf kinase, and 1 μg/well of MEK-1 substrate protein. Assay samples were incubated for 30 min at room temperature. The kinase reaction was stopped by adding EDTA, pH8 to a final concentration of 25 mM. A 10 μl of the reaction sample was spotted onto nitrocellulose filter and dot blot was performed by adding 1 μg/ml of anti-phospho-MEK-1 antibody in the blocking solution (Licor Bioscience, catalogue # 927-40000). The nitrocellulose filter was subsequently incubated with secondary IRDye 800CW goat anti-rabbit antibody (Licor Bioscience, catalogue # 926-32211) before reading the signal on an Odyssey imager (Licor Bioscience).
as §1

B-Raf = molecular target: T2, B-Raf (Homo sapiens, UniProt P15056); test: Raf kinase assay (B-Raf kit, MEK-1 substrate, dot blot); details: 250 μM ATP; read-out: B-Raf IC50 grade
T2 construct: purchased Upstate 17-359
T2 sequence (P15056 whole entry): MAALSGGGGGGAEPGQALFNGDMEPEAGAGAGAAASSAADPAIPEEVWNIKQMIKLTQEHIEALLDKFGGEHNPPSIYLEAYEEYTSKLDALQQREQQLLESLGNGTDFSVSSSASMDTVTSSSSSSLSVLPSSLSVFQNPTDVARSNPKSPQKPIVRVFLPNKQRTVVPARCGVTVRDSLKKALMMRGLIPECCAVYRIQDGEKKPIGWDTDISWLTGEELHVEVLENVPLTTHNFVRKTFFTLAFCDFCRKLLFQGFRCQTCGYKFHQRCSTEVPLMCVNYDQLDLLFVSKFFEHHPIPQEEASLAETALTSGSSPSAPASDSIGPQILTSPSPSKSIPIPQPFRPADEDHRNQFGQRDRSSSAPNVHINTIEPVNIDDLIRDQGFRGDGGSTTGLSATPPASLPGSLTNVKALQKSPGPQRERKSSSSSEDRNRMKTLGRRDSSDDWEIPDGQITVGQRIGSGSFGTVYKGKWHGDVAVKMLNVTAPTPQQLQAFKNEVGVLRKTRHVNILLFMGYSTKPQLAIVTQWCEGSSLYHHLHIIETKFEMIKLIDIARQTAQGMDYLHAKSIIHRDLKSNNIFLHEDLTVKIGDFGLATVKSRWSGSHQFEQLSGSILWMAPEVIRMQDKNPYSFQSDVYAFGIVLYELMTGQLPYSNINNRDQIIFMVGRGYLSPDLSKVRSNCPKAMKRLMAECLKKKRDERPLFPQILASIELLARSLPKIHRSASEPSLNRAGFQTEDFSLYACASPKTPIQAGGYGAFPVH
Protocol: as §2, §1

IC50 (HDAC) [nM]	IC50 (VEGFR2) [nM]	Structure (SMILES)	also measured
100 to 1000	–	O=C(CCC(=O)NCc1cc(Oc2ccc(NC(=O)Nc3ccc(Cl)c(C(F)(F)F)c3)cc2)ccn1)NO [Compound 19, N^1-((4-(4-(3-(4-chloro-3-(trifluoromethyl)phenyl)ureido)phenoxy)pyridin-2-yl)methyl)-N^4-hydroxysuccinamide]	–
100 to 1000	100 to 1000	O=C(CCCCCCCNCc1cc(Oc2ccc(NC(=O)Nc3ccc(Cl)c(C(F)(F)F)c3)cc2)ccn1)NO [Compound 18, 8-((4-(4-(3-(4-Chloro-3-(trifluoromethyl)phenyl)ureido)phenoxy)pyridin-2-yl)methylamino)-N-hydroxyoctanamide]	–
1000 to 10000	100 to 1000	O=C(CCCCCCCNC(=O)c1cc(Oc2ccc(NC(=O)Nc3ccc(Cl)c(C(F)(F)F)c3)cc2)ccn1)NO [Compound 7, 4-(4-(3-(4-chloro-3-(trifluoromethyl)phenyl)ureido)phenoxy)-N-(8-(hydroxyamino)-8-oxooctyl)picolinamide]	IC50 (cKit): < 100 nM; IC50 (PDGFRβ): 100 to 1000 nM
> 10000	1000 to 10000	O=C(Nc1ccc(Oc2ccnc(C(=O)NO)c2)cc1)Nc1ccc(Cl)c(C(F)(F)F)c1 [Compound 36, 4-(4-(3-(4-chloro-3-(trifluoromethyl)phenyl)ureido)phenoxy)-N-hydroxypicolinamide]	–
1000 to 10000	–	O=C(CCCCCOc1cc(Oc2ccc(NC(=O)Nc3ccc(Cl)c(C(F)(F)F)c3)cc2)ccn1)NO [Compound 33]	–
100 to 1000	< 100	O=C(CCCC(=O)Nc1cc(Oc2ccc(NC(=O)Nc3ccc(Cl)c(C(F)(F)F)c3)cc2)ccn1)NO [Compound 9, 1-(4-chloro-3-(trifluoromethyl)phenyl)-3-(4-(2-(5-(hydroxyamino)-5-oxopentanamido)pyridin-4-yloxy)phenyl)urea]	–
1000 to 10000	–	O=C(CCCCn1ccc(Oc2ccc(NC(=O)Nc3ccc(Cl)c(C(F)(F)F)c3)cc2)cc1=O)NO [Compound 26]	–
100 to 1000	–	O=C(CCCCCCNC(=O)c1cc(Oc2ccc(NC(=O)Nc3ccc(Cl)c(C(F)(F)F)c3)cc2)ccn1)NO [Compound 6, 4-(4-(3-(4-chloro-3-(trifluoromethyl)phenyl)ureido)phenoxy)-N-(7-(hydroxyamino)-7-oxoheptyl)picolinamide]	–
100 to 1000	< 100	O=C(CCCCCCC(=O)NCc1cc(Oc2ccc(NC(=O)Nc3ccc(Cl)c(C(F)(F)F)c3)cc2)ccn1)NO [Compound 23, N^1-((4-(4-(3-(4-chloro-3(trifluoromethyl)phenyl)ureido)phenoxy)pyridin-2-yl)methyl)-N^8-hydroxyoctanediamide]	IC50 (cKit): < 100 nM; IC50 (PDGFRβ): 100 to 1000 nM
100 to 1000	< 100	O=C(CCCCCNC(=O)c1cc(Oc2ccc(NC(=O)Nc3ccc(Cl)c(C(F)(F)F)c3)cc2)ccn1)NO [Compound 5, 4-(4-(3-(4-Chloro-3-(trifluoromethyl)phenyl)ureido)phenoxy)-N-(6-(hydroxyamino)-6-oxohexyl)picolinamide]	IC50 (cKit): < 100 nM; IC50 (C-Raf): 1000 to 10000 nM; IC50 (PDGFRβ): 100 to 1000 nM; IC50 (B-Raf): 1000 to 10000 nM
100 to 1000	< 100	O=C(CCCCC(=O)NCc1cc(Oc2ccc(NC(=O)Nc3ccc(Cl)c(C(F)(F)F)c3)cc2)ccn1)NO [Compound 21, N^1-((4-(4-(3-(4-chloro-3(trifluoromethyl)phenyl)ureido)phenoxy)pyridin-2-yl)methyl)-N^6-hydroxyadipamide]	IC50 (cKit): < 100 nM; IC50 (PDGFRβ): 100 to 1000 nM
1000 to 10000	–	C[C@@H](NC(=O)c1cc(Oc2ccc(NC(=O)Nc3ccc(Cl)c(C(F)(F)F)c3)cc2)ccn1)C(=O)NO [Compound 1, (R)-4-(4-(3-(4-chloro-3-(trifluoromethyl)phenyl)ureido)phenoxy)-N-(1-(hydroxyamino)-1-oxopropan-2-yl)picolinamide]	–
100 to 1000	< 100	O=C(CCCCCCC(=O)Nc1cc(Oc2ccc(NC(=O)Nc3ccc(Cl)c(C(F)(F)F)c3)cc2)ccn1)NO [Compound 12, 1-(4-chloro-3-(trifluoromethyl)phenyl)-3-(4-(2-(8-(hydroxyamino)-8-oxooctanamido)pyridin-4-yloxy)phenyl)urea]	IC50 (cKit): < 100 nM; IC50 (C-Raf): < 100 nM; IC50 (PDGFRβ): < 100 nM
1000 to 10000	–	O=C(CCCn1ccc(Oc2ccc(NC(=O)Nc3ccc(Cl)c(C(F)(F)F)c3)cc2)cc1=O)NO [Compound 25]	–
100 to 1000	–	O=C(CCCCCCOc1cc(Oc2ccc(NC(=O)Nc3ccc(Cl)c(C(F)(F)F)c3)cc2)ccn1)NO [Compound 34]	–
100 to 1000	–	O=C(CCCCCn1ccc(Oc2ccc(NC(=O)Nc3ccc(Cl)c(C(F)(F)F)c3)cc2)cc1=O)NO [Compound 27]	–
1000 to 10000	–	O=C(CCCOc1cc(Oc2ccc(NC(=O)Nc3ccc(Cl)c(C(F)(F)F)c3)cc2)ccn1)NO [Compound 31]	–
100 to 1000	–	O=C(CCCCCCn1ccc(Oc2ccc(NC(=O)Nc3ccc(Cl)c(C(F)(F)F)c3)cc2)cc1=O)NO [Compound 28]	–
100 to 1000	< 100	O=C(CCCC(=O)NCc1cc(Oc2ccc(NC(=O)Nc3ccc(Cl)c(C(F)(F)F)c3)cc2)ccn1)NO [Compound 20, N^1-((4-(4-(3-(4-chloro-3(trifluoromethyl)phenyl)ureido)phenoxy)pyridin-2-yl)methyl)-N^5-hydroxyglutaramide]	–
1000 to 10000	–	O=C(CCCCC(=O)Nc1cc(Oc2ccc(NC(=O)Nc3ccc(Cl)c(C(F)(F)F)c3)cc2)ccn1)NO [Compound 10, 1-(4-chloro-3-(trifluoromethyl)phenyl)-3-(4-(2-(6-(hydroxyamino)-6-oxohexanamido)pyridin-4-yloxy)phenyl)urea]	–
1000 to 10000	–	O=C(CCCNC(=O)c1cc(Oc2ccc(NC(=O)Nc3ccc(Cl)c(C(F)(F)F)c3)cc2)ccn1)NO [Compound 3, 4-(4-(3-(4-chloro-3-(trifluoromethyl)phenyl)ureido)phenoxy)-N-(4-(hydroxyamino)-4-oxobutyl)picolinamide]	–
100 to 1000	100 to 1000	O=C(CCCCCCNCc1cc(Oc2ccc(NC(=O)Nc3ccc(Cl)c(C(F)(F)F)c3)cc2)ccn1)NO [Compound 17, 7-((4-(4-(3-(4-chloro-3-(trifluoromethyl)phenyl)ureido)phenoxy)pyridin-2-yl)methylamino)-N-hydroxyheptanamide]	–
100 to 1000	–	O=C(CCCCCNCc1cc(Oc2ccc(NC(=O)Nc3ccc(Cl)c(C(F)(F)F)c3)cc2)ccn1)NO [Compound 16, 6-((4-(4-(3-(4-chloro-3-(trifluoromethyl)phenyl)ureido)phenoxy)pyridin-2-yl)methylamino)-N-hydroxyhexanamide]	–
100 to 1000	< 100	O=C(CCCCOc1cc(Oc2ccc(NC(=O)Nc3ccc(Cl)c(C(F)(F)F)c3)cc2)ccn1)NO [Compound 32]	–
